The target in test [1] is T1, cAMP-dependent protein kinase catalytic subunit PRKX (Homo sapiens) (UniProt P51817).
T1 sequence (whole entry): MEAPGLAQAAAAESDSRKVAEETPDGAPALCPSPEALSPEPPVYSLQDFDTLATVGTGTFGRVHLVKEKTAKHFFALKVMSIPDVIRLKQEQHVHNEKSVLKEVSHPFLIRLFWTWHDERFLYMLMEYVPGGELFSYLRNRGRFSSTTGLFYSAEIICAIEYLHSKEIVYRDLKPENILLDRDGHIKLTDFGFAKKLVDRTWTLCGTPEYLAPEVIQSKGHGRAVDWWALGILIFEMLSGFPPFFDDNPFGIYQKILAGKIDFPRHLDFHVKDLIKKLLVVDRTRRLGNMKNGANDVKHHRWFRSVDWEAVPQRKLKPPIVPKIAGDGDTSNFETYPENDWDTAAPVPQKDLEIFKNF
Conditions: at 10 µM.

Test [2] addresses Dual specificity protein kinase CLK2 (Homo sapiens, UniProt P49760). Kind of test: Selectivity interaction (KinomeScan (DiscoverX)) EUB0001550a CLK2. The following applies: at 1 µM.
Test [3] deals with T2, Mitogen-activated protein kinase kinase kinase 2 (Homo sapiens) (UniProt Q9Y2U5).
T2 sequence (whole entry): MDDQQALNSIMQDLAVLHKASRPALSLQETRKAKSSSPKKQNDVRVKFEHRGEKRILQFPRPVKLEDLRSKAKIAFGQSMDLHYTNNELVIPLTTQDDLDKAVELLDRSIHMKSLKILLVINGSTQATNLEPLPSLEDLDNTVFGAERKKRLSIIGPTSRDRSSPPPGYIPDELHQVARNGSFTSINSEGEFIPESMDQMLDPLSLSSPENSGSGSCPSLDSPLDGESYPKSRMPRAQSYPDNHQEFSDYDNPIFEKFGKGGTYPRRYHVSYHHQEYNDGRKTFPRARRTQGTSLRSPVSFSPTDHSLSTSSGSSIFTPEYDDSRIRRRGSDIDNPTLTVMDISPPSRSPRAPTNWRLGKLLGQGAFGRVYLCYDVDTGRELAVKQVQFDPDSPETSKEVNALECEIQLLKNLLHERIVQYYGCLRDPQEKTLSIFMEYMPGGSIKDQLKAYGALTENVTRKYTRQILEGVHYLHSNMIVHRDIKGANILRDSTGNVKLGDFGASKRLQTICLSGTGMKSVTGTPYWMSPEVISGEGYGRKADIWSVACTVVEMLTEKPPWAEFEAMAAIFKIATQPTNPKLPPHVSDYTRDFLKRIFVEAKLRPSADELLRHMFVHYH
Put plainly: Selectivity interaction (KinomeScan (DiscoverX)) EUB0000695a MAP3K2. Conditions: at 100 nM.

The target in test [4] is T3, NUAK family SNF1-like kinase 1 (Homo sapiens) (UniProt O60285).
T3 sequence (whole entry): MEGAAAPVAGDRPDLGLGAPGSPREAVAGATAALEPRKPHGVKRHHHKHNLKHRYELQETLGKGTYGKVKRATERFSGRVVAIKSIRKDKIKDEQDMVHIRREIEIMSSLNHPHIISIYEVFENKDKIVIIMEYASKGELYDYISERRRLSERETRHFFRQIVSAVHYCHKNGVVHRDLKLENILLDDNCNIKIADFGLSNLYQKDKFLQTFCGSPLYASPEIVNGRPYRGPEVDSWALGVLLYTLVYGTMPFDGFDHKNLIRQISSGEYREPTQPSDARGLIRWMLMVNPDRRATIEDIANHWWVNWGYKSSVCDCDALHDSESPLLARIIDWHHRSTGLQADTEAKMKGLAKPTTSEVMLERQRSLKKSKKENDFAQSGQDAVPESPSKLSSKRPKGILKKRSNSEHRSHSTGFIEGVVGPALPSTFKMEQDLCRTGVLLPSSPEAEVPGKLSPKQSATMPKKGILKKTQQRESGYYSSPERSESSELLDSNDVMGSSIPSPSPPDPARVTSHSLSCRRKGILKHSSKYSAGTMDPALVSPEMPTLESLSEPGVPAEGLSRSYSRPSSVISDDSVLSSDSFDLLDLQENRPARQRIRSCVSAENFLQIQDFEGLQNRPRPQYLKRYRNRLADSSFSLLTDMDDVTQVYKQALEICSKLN
Kind of test: Selectivity interaction (Kinase panel (Carna Biosciences)) EUB0001542aTs NUAK1. Conditions: at 1 µM.

Test [5] has as its target Angiopoietin-1 receptor (Homo sapiens) (UniProt Q02763). Kind of test: (§1) Selectivity interaction (Kinase panel (Z-LYTE Assay)) EUB0001632a TEK. Conditions: at 10 µM.
Test [6] relates to Angiopoietin-1 receptor (Homo sapiens), Q02763 [Y897S]. The description is as §1. The following applies: at 10 µM.
Sequence of Angiopoietin-1 receptor (Homo sapiens), Q02763 [Y897S] (Q02763 whole entry Y897S, canonical isoform): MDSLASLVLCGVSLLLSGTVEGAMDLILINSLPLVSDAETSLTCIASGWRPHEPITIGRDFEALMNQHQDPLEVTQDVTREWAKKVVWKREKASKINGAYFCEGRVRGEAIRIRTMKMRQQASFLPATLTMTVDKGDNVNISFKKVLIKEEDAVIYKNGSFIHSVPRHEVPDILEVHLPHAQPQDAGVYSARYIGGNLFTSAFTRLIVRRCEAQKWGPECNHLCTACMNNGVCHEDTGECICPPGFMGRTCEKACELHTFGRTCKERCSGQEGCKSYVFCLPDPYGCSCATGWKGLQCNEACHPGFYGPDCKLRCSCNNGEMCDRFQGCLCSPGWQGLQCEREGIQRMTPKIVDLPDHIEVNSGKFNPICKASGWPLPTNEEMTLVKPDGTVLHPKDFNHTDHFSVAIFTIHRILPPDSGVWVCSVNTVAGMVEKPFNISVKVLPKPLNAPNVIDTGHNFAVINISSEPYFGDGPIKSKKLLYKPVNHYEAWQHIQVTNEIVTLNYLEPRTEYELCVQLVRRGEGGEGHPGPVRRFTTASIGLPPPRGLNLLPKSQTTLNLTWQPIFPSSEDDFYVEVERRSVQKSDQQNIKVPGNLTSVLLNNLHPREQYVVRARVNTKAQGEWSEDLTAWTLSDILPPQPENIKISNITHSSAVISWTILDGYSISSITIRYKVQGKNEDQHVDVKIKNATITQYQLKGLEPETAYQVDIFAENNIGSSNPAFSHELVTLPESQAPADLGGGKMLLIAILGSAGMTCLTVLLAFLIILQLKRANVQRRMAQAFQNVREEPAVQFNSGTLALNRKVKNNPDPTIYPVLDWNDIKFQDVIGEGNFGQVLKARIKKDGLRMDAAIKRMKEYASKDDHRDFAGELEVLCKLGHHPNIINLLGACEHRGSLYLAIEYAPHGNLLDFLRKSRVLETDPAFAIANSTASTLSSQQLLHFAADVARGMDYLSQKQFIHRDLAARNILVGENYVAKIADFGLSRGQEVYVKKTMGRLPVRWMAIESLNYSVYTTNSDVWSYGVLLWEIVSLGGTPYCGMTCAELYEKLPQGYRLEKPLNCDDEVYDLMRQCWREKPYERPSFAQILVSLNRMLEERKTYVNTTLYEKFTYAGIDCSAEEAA
Test [7] deals with Phosphatidylinositol 4,5-bisphosphate 3-kinase catalytic subunit gamma isoform (Homo sapiens) (UniProt P48736). Kind of test: Selectivity interaction (ActivX KiNativ screen (kinase selectivity in THP-1 cell lysates)) EUB0000639a PIK3CG. The test is classed as subcellular. The following applies: lysate.
Sequence of Phosphatidylinositol 4,5-bisphosphate 3-kinase catalytic subunit gamma isoform (Homo sapiens) (P48736 whole entry, looked up, canonical isoform): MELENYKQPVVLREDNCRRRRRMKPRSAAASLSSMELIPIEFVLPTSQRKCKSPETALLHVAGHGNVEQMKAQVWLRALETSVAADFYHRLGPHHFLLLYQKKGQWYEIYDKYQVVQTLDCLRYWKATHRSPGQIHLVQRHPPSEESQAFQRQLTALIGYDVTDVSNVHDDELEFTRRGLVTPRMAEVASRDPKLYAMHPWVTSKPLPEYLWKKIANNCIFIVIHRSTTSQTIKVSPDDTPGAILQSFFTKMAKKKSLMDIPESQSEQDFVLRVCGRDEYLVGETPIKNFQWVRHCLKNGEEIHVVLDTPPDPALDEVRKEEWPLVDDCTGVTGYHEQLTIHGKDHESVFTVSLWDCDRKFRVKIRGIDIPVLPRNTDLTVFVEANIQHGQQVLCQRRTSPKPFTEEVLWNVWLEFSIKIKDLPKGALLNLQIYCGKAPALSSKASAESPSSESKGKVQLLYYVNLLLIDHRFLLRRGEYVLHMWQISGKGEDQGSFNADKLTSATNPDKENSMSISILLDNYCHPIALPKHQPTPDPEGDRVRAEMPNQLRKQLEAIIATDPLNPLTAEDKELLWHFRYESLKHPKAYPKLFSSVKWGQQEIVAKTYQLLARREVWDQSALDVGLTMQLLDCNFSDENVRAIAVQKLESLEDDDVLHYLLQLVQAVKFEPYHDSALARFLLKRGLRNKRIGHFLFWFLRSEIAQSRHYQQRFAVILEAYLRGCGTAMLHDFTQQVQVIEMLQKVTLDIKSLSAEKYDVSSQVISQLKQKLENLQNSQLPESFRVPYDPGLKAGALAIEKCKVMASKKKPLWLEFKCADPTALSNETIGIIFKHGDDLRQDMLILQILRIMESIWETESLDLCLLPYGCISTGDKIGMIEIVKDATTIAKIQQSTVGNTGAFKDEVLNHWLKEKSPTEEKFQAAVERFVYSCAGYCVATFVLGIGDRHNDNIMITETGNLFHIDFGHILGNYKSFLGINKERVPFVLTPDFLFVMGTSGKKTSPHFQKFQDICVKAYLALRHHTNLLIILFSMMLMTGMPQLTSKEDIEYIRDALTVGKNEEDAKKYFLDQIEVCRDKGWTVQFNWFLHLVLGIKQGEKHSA
Test [8] addresses T4, cGMP-dependent protein kinase 2 (Homo sapiens) (UniProt Q13237).
T4 sequence (whole entry): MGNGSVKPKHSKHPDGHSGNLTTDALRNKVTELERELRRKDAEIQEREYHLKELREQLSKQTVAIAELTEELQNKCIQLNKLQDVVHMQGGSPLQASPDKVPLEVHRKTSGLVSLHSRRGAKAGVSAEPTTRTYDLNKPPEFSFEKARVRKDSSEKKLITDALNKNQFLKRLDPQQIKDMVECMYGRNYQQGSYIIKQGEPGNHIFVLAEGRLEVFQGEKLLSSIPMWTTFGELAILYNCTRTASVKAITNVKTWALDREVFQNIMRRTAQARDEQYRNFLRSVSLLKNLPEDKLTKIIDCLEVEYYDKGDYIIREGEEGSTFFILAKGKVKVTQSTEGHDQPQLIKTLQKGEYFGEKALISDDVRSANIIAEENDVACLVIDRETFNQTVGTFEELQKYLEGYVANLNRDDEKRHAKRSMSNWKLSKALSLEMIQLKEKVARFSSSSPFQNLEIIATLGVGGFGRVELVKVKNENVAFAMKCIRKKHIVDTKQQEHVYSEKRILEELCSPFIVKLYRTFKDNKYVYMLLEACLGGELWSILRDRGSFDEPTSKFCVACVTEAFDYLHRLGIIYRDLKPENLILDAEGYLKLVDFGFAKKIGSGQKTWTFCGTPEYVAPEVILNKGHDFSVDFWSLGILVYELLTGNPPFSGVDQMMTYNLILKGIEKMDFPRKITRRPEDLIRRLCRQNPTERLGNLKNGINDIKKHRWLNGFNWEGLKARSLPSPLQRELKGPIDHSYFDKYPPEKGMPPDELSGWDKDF
Put plainly: Selectivity interaction (KinomeScan (DiscoverX)) EUB0000229b PRKG2. The following applies: at 10 µM.

For the next test, the target named is Misshapen-like kinase 1 (Homo sapiens, UniProt Q8N4C8). Kind of test: Selectivity interaction (Enzymatic assay) EUB0001199aCl MINK1.
Sequence of Misshapen-like kinase 1 (Q8N4C8 whole entry): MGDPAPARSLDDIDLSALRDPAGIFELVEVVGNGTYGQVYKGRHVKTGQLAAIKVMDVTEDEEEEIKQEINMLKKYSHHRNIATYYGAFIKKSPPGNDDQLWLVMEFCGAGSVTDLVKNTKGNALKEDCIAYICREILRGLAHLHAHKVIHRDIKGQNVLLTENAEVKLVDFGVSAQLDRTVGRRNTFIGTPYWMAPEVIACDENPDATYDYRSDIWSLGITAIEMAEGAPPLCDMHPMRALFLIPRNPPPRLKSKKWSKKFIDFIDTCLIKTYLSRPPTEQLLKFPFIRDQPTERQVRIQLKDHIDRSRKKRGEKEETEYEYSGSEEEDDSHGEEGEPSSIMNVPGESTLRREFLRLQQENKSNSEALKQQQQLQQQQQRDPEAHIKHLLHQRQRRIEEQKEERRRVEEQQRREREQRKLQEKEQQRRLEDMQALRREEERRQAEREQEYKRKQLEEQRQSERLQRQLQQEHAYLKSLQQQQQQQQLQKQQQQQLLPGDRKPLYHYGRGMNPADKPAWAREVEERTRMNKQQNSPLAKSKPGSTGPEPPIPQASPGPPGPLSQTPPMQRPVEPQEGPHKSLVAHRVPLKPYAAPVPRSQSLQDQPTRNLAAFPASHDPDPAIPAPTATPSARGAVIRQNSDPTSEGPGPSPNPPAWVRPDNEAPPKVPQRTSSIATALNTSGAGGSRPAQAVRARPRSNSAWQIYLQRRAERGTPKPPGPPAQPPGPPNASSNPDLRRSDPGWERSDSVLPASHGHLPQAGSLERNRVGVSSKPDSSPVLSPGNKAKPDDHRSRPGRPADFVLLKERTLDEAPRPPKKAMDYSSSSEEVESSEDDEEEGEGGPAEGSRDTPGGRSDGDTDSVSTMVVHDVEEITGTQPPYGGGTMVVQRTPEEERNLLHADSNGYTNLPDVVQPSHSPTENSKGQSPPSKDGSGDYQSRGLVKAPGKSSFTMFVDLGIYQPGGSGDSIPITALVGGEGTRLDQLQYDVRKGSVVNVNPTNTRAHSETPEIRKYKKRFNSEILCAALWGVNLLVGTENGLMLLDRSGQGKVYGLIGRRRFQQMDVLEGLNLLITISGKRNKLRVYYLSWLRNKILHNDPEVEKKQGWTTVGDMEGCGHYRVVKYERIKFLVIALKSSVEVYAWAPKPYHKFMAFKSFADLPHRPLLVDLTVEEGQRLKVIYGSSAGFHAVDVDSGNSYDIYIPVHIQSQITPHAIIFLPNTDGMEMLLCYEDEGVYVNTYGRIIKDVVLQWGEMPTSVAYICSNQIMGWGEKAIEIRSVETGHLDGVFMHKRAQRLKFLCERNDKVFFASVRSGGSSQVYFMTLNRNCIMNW
For test [9], the target named is Transient receptor potential cation channel subfamily M member 6 (Homo sapiens) (UniProt Q9BX84). Kind of test: Selectivity interaction (KinomeScan (DiscoverX)) EUB0000618a TRPM6. Conditions: at 10 µM.

Sequence of Angiopoietin-1 receptor (Homo sapiens) (Q02763 whole entry): as the sequence (Q02763 whole entry Y897S, canonical isoform) above, with S897Y counted along it
Sequence of Dual specificity protein kinase CLK2 (P49760 whole entry, looked up): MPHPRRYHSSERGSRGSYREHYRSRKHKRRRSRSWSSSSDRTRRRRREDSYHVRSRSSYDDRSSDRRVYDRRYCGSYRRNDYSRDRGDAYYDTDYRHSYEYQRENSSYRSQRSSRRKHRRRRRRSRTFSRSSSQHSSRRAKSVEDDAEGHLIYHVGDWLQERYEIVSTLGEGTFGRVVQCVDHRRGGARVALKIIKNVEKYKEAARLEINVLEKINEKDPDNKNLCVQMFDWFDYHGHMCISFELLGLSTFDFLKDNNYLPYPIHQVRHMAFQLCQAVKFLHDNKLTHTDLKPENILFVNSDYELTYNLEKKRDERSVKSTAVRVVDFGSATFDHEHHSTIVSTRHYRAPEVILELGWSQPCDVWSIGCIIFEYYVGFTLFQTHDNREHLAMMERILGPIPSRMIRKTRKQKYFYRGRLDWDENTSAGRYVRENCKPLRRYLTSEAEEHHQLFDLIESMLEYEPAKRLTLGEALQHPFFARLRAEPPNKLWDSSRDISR

On to `Cc1cc([C@@H](C)Nc2ccccc2C(=O)O)c2nc(N3CCOCC3)cc(=O)n2c1` [AZD-6482], for which the % of control in [1] was 91%. Regarding `CN(C)CC#Cc1ccc2[nH]c3c(c2c1)-c1nc(N)ncc1CCC3`, in [2], the % of control came out at 20%. For `Cc1cc(F)c(C(=O)Nc2cccc(-c3nncn3C(C)C)n2)cc1-n1cnc(C2CC2)c1`, the % of control in [3] was 100%.

In [4], `Cn1cc(Nc2nccc(N3CC4CCC(C3)N4C(=O)[C@@H]3CC3(F)F)n2)cn1` registered a % of inhibition of 60%. With `Cn1cc(-n2cnc3c(NCc4nc5cc(Cl)c(Cl)cc5[nH]4)nc(N4CCOCC4)nc32)cn1`, the % of control in test [5] was -5.98%; in test [6], 0.243%. For `CC[C@@H]1[C@H](F)C(=O)N[C@@H]1COc1nccc2cc(C(N)=O)c(OC)cc12` [ZIMLOVISERTIB], the % of inhibition in test [7] (at 0.01 µM) was 6.3%; in [7] (at 0.04 µM), 12%; in test [7] (at 0.2 µM), 7.4%; in test [7] (at 1 µM), 13.3%; in test [7] (at 5 µM), 2.6%.

In the case of `COc1cc(N(C)c2ccnc3ccc(C(F)(F)F)cc23)cc(OC)c1OC`, in test [8], the % binding turned out to be 78%. At Misshapen-like kinase 1, `CN1Cc2nccc(-c3cn(C)nc3-c3ccc(F)cc3)c2C1=O` displayed an IC50 of 1570 nM. Take `O[C@H]1CC[C@H](Nc2ncc3nc(Nc4c(F)cc(F)cc4F)n([C@H]4CCOC4)c3n2)CC1`: the % of control in [9] was found to be 100%.
